Results: patent US10883087B2, “Uricase sequences and methods of treatment” (MedImmune, LLC, priority 2015, dated 2021)

What was measured:
Experiment in all cases: Substrate depletion assay (UA)
[1] = tested on: Consensus uricase, SEQ ID NO: 34 (amino terminal His tag); type: biochemical; conditions: PB, pH 7.4, typically 30° C.; UA 23.8-400 μM; 292 nm
Description: After this process, the following 7 candidate sequences were chosen for further investigation: Arthrobacter globiformis uricase (SEQ ID NO: 27), Deinococcus geothermalis uricase (SEQ ID NO: 28), Deinococcus radiodurans uricase (SEQ ID NO: 29), Granulicella tundricola uricase (SEQ ID NO: 30), Solibacter usitatus uricase (SEQ ID NO: 31), Terriglobus saanensis uricase (SEQ ID NO: 32) and Kyrpidia tusciae uricase (SEQ ID NO: 33). Additionally, as an 8th sequence, a consensus uricase sequence was also devised from the alignment of many uricase sequences. The consensus sequence is represented by SEQ ID NO: 34.
An initial screening paradigm was used to identify candidates for further optimization. […] Each uricase construct was evaluated for expression level and in particular, soluble expression. […] Protein yield was determined by measuring the absorbance at 280 nm. […]
(§1) Five uricases (SEQ ID NOs: 27, 28, 29, 32, and 34) were evaluated for neutral pH solubility characteristics and activity in terms of product formation (H2O2) at pH 9.0 and 7.4. […] The appearance of hydrogen peroxide can be measured by an increase in absorbance at 540 nm. […]
(§2) Substrate depletion (UA) is another common method for assessing uricase activity. […] The Molecular Devices reader temperature was set to the 30° C. Absorbance measurements at 292 nm were captured every 20 seconds for a period of 10 minutes. […]

[2] = target: T1, Arthrobacter globiformis uricase, wt, SEQ ID NO: 27 (amino terminal His tag) (Arthrobacter globiformis, UniProt D0VWQ1); type: biochemical
T1 sequence (D0VWQ1 1-302): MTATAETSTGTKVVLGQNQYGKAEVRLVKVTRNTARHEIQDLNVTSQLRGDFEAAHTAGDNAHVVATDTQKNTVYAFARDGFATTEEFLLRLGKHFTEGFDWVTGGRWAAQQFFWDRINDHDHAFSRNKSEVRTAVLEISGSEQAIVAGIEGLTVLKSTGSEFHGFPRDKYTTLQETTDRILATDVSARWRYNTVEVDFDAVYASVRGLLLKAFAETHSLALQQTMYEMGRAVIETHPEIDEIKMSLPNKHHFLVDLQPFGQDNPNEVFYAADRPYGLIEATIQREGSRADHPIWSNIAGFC
Procedure: (§3) An initial screening paradigm was used to identify candidates for further optimization. The 8 uricase sequences described in Example 1 were cloned with an amino terminal His tag and expressed in E. coli. Each uricase construct was evaluated for expression level and in particular, soluble expression. Uricase expressing E. coli were lysed and soluble material was separated from insoluble (pellet) material. The lysates were separated by SDS-PAGE and the proteins were visualized by Coomassie blue staining. […] The pig-baboon chimera appears to express almost entirely in the pellet (P) (insoluble) fraction (FIG. 1, Lane 9). Cytosolic soluble (S) expression was considered a favorable property. […] Protein yield was determined by measuring the absorbance at 280 nm. […]
as §1
as §2, with “minutes. The rate of UA degradation was calculated by SoftMax Pro software. Vmax and Km were calculated for these uricases (see Table 5 below).” for “minutes.”

[3] = target: Deinococcus geothermalis uricase, SEQ ID NO: 28 (amino terminal His tag) (Deinococcus geothermalis, UniProt Q1J399); type: biochemical
Procedure: (§4) Substrate depletion (UA) is another common method for assessing uricase activity. In the substrate depletion assay, uricase, UA, and phosphate buffer were incubated for 1 hour at the stated temperature (typically 30° C.). […] In some assays 1 mM DTT was added to the assay. The Molecular Devices reader temperature was set to the 30° C. Absorbance measurements at 292 nm were captured every 20 seconds for a period of 10 minutes. The rate of UA degradation was calculated by SoftMax Pro software. Vmax and Km were calculated for these uricases (see Table 5 below).

[4] = tested on: Krystexxa (pegloticase), PEGylated chimeric pig/baboon uricase; type: biochemical, pig and baboon (chimera); conditions: PB, pH 7.4, typically 30° C.; UA 23.8-400 μM; 292 nm
Procedure: Five uricases (SEQ ID NOs: 27, 28, 29, 32, and 34) were evaluated for neutral pH solubility characteristics and activity in terms of product formation (H2O2) at pH 9.0 and 7.4. In the product formation assay, allantoin formation is proportional to H2O2 formation, which is linked to colorimetric horseradish peroxidase-catalyzed, colorimetric reaction. The appearance of hydrogen peroxide can be measured by an increase in absorbance at 540 nm. Product formation assays were proportional to substrate depletion assays in terms of uricase activity. […] The substrate depletion assays were much better for assessing kinetic parameters like Vmax and Km.
Substrate depletion (UA) is another common method for assessing uricase activity. In the substrate depletion assay, uricase, UA, and phosphate buffer were incubated for 1 hour at the stated temperature (typically 30° C.). Uricase was then diluted to 1 μg/mL and combined with a curve of UA (400 μM diluted down 1:1.6 to 23.8 μM) in 0.1M phosphate buffer (PB), pH 7.4. In some assays 1 mM DTT was added to the assay. The Molecular Devices reader temperature was set to the 30° C. Absorbance measurements at 292 nm were captured every 20 seconds for a period of 10 minutes. The rate of UA degradation was calculated by SoftMax Pro software. Vmax and Km were calculated for these uricases (see Table 5 below). […]

[5] = tested on: O=c1[nH]c(=O)c2[nH]c(=O)[nH]c2[nH]1; type: biochemical, Deinococcus geothermalis; conditions: other: PB, pH 7.4, typically 30° C., UA 23.8-400 μM, 292 nm
Procedure: as §4

[6] = substrate: O=c1[nH]c(=O)c2[nH]c(=O)[nH]c2[nH]1; type: biochemical, Deinococcus radiodurans; conditions: other: PB, pH 7.4, typically 30° C., UA 23.8-400 μM, 292 nm
Procedure: as §3, §1
as §2, with “minutes. The rate of UA degradation was calculated by SoftMax Pro software. Vmax and Km were calculated for these uricases (see Table 5 below).” for “minutes.”

[7] = substrate: O=c1[nH]c(=O)c2[nH]c(=O)[nH]c2[nH]1; type: biochemical, Terriglobus saanensis; conditions: other: PB, pH 7.4, typically 30° C., UA 23.8-400 μM, 292 nm
Procedure: as §3, §1
as §2, with “minutes. The rate of UA degradation was calculated by SoftMax Pro software. Vmax and Km were calculated for these uricases (see Table 5 below).” for “minutes.”

[8] = substrate: O=c1[nH]c(=O)c2[nH]c(=O)[nH]c2[nH]1; type: biochemical, Arthrobacter globiformis
Procedure: as §3, §1
as §2, with “minutes. The rate of UA degradation was calculated by SoftMax Pro software. Vmax and Km were calculated for these uricases (see Table 5 below).” for “minutes.”

Which results are given for `O=c1[nH]c(=O)c2[nH]c(=O)[nH]c2[nH]1` [UA, uric acid]?
Km [1]: 31.8 µM; better kcat/Km relative to Krystexxa ([2]; ratio to Krystexxa): ~2 fold; better Km relative to Krystexxa ([2]; ratio to Krystexxa (55.7 versus 116.3)): 2 fold; Vmax ([3]; compared with Krystexxa): 10.8; better kcat/Km relative to Krystexxa ([3]; ratio to Krystexxa): ~2 fold; improved Vmax relative to Krystexxa ([3]; ratio to Krystexxa (10.8 versus 5.7)): 2 fold; Km [4]: 116 µM; Vmax [4]: 5.7

For “Deinococcus geothermalis uricase, SEQ ID NO: 28 (amino terminal His tag) (Deinococcus geothermalis DSM 11300)”, which Km [5] is on record?
Its Km is 55.7 µM.

B1: Deinococcus radiodurans uricase, SEQ ID NO: 29 (amino terminal His tag) (Deinococcus radiodurans R1 = ATCC 13939 = DSM 20539) (protein)
chain: MMTGTQQPGTQPKVKVRLGENNYGKAEVQLMKIKRGTPRHELREAKVRVAMYGDFGAAHSEGDNTDLVATDTVRNTVYGLAKEGFESSIEEFGKELLTHFVKVGPRVTGGFAEFTEHLWERVQTPAQPQGHDHAFVRQMPKRTARVETQDGRRFTVTSGIEELYVLKTTESGWENYLLDERFTTLPETHDRVMATFVTAKWEYAVESCDYDAVWERVYRQIQHTFTDHYSPSLQRTLYLMGEAVLSVCPEISRIWFQMPNKHHLVYNLGRFGLENNNEILHVDPEPYGLMEAWVERAE
For B1, which Km [6] is on record?
Its Km is 83.1 µM.

B2: Terriglobus saanensis uricase, SEQ ID NO: 32 (amino terminal His tag) (Terriglobus saanensis SP1PR4) (protein)
chain: MAKLIDSRYGKARVRVMKLDRSQPQHQLLEWTVRVLLEGDFETAHTVGDNSNILPTDTMKNTVYSRAKESKAETPEEFAIELAEFLLGRNPQVHTVEVKIETAMWKRLVVDGKPHGSSFMRGSDELGTVLHHATRETKTMVCGVENMVILKSQNSSFEGYIQDDLTTLKPTADRLFATAMTADWDYTDGGSAFAARREAIREAMLKAFAEHDSKSVQQTLYAMAEAAMAAVPAVNRVHMVMPNKHCLLVDLKHFGQENNNEIFVPTEDPHGYIEATVVRE
Which Km [7] does the source give for B2 here?
Its Km is 76.2 µM.

B3: Arthrobacter globiformis uricase, wt, SEQ ID NO: 27 (amino terminal His tag) (Arthrobacter globiformis) (protein)
chain: T1 sequence (D0VWQ1 1-302)
Which Km ([8]; other: PB, pH 7.4, typically 30° C., UA 23.8-400 μM, 292 nm, pH 7.4) does the source give for B3 here?
Its Km is 110 µM.

What about the Km ([8]; other: restated in text, compared with Krystexxa, 30.0 °C) of the same molecule?
The Km was 55.7 µM.
